Columns and labels:
[1] = ex-vivo olfactory evaluation test on incubated sweat; conditions: for effect on the unpleasant odor: compared to the negative control (incubated sweat alone), concentrations as tested; for comparison of anti-odor activity, compound 1 versus ethyl N-acetyl-L-tryptophanate: equivalent dose, several concentrations (0.1%, 0.5%, 1%)
Description: The deodorant activity was evaluated in the ex-vivo olfactory evaluation test, on incubated sweat.
Tryptophan ethyl ester hydrochloride (compound 1 of the example A-1) was evaluated at various concentrations in a pool of fresh sweat.
The samples were prepared in 10-ml headspace screw bottles, they are incubated at 35° C. for 24 h under stirring. A sample of sweat with 1 mg of anhydrous aluminum hydroxychloride (ACH) in 1 ml of sweat (i.e. 0.1%) is incubated in order to serve as a positive reference (little odor) and a sample of sweat alone is incubated to serve as a negative reference (unpleasant odor).
The samples after incubation are evaluated olfactively by a panel of several people in a blind test on the headspace bottles. The incubated samples of sweat containing ACH and sweat alone are evaluated at the same time in order to be used respectively as […].
3 parameters are evaluated on a scale from 0 to 10: • The residual of the unpleasant odor with 0 for not very unpleasant (positive reference) and 10 for very unpleasant odor (negative reference). • The total power of the odor with 0 for little power and 10 for very powerful. • The pleasantness of the odor with 0 for not very pleasant and 10 for very pleasant.

[2] = tested on: Corynebacterium xerosis CIP 5216; experiment: killing test: number of viable micro-organisms after contact; format: cell-based; conditions: 0.5%; for viable micro-organisms, CFU/g of preparation: 35° C., inoculum 1.4E7
Excerpt: The anti-microbial activity of Tryptophan ethyl ester hydrochloride (compound 1) was valuated in vitro on Corynebacterium xerosis (killing test, quantity of micro-organisms killed). Purpose of test: Quantitative determination of the activity of a cosmetic starting material with respect to Corynebacterium xerosis, a micro-organism involved in the phenomena linked to underarm odor. This micro-organism is placed in optimum growth conditions. Protocol: The model strain used is: Corynebacterium xerosis CIP 5216 (bacteria) The strain is placed into contact with the starting material to be tested in a suitable liquid culture medium. The dilutions of the compounds under evaluation are performed in agar at 1:1000, making it possible, for dispersible compounds under evaluation, to do away with the use of a solvent which could introduce bias in the evaluation of the compounds. In parallel, a growth control, in which the starting material to be tested is replaced with diluent, is prepared in the same conditions. The samples are placed in a rotating incubator at 35° C. and maintained under stirring for the entire duration of the test. After 2, 6 and 24 hours of contact, the number of viable micro-organisms remaining in the mixture is evaluated. The results are expressed as a logarithm of the number of micro-organisms per milliliter of mixture.

[3] = Table 5, 0.5% in incubated sweat, scale 0 to 10
[4] = incubated sweat, release of odorous volatile molecules
[5] = Table 3, 0.5% in incubated sweat, scale 0 to 10, panel of 6
[6] = Table 2, 0.1% in sweat, scale 0 to 10, panel of 6
[7] = Table 2, 0.5% in sweat, scale 0 to 10, panel of 6
[8] = Table 2, 1% in sweat, scale 0 to 10, panel of 6
[9] = Table 1, 0.1% in sweat, 35° C. 24 h, scale 0 to 10, panel of 6
[10] = Table 1, 0.5% in sweat, scale 0 to 10, panel of 6
[11] = Table 1, 1% in sweat, scale 0 to 10, panel of 6
[12] = Table 4, 0.3% in incubated sweat, scale 0 to 10
[13] = Table 3, positive reference, 1 mg in 1 ml of sweat (0.1%), scale 0 to 10
[14] = Table 4, positive reference, 1 mg in 1 ml of sweat (0.1%), scale 0 to 10
[15] = Table 5, positive reference, 1 mg in 1 ml of sweat (0.1%), scale 0 to 10

What does the source list for `CC(C)(C)OC(=O)[C@@H](N)Cc1c[nH]c2ccccc12.Cl` [Compound 8, Tryptophan tertiobutyl ester hydrochloride]?
Pleasantness of the odor [1, 3]: 5.7; Power [1, 3]: 4; Residual unpleasant odor [1, 3]: 1.7; effect on the unpleasant odor [1]: effect on the reduction of the unpleasant odor; Pleasantness of the odor [1, 4]: generate a pleasant odor

What does the source list for `CC/C=C\CCOC(=O)[C@@H](N)Cc1c[nH]c2ccccc12` [Compound 3, Tryptophan cis-3-hexenyl ester]?
Pleasantness of the odor [1, 5]: 7.8; Power [1, 5]: 6.8; Residual unpleasant odor [1, 5]: 1; effect on the unpleasant odor [1]: effect of reducing the unpleasant odor; Pleasantness of the odor [1, 4]: contribute to the pleasantness of the odor

Which results are given for `CC/C=C\CCOC(=O)[C@@H](N)Cc1c[nH]c2ccccc12.Cl` [Compound 4, Tryptophan cis-3-hexenyl ester hydrochloride]?
Pleasantness of the odor [1, 5]: 6; Power [1, 5]: 7; Residual unpleasant odor [1, 5]: 2.5; effect on the unpleasant odor [1]: effect of reducing the unpleasant odor; Pleasantness of the odor [1, 4]: contribute to the pleasantness of the odor

Which “Pleasantness of the odor” value [1, 5] does the source give for `C=CC(C)CCCC(C)(C)OC(=O)[C@@H](N)Cc1c[nH]c2ccccc12` (stereo partly drawn) [Compound 5, Tryptophan dihydromyrcenyl ester] here?
The value was 5.8.

And the Power [1, 5]?
The Power was 5.5.

And the Residual unpleasant odor [1, 5]?
Its Residual unpleasant odor is 2.5.

And the “effect on the unpleasant odor” value [1]?
Its value is “effect of reducing the unpleasant odor”.

What about the “Pleasantness of the odor” value [1, 4] of the same compound?
Its value is “contribute to the pleasantness of the odor”.

Which Power [1, 6] does the source give for `CCOC(=O)[C@H](Cc1c[nH]c2ccccc12)NC(C)=O` [Compound 2, ethyl N-Acetyl-L-tryptophanate, reference compound] here?
The Power was 6.2.

What about the Residual unpleasant odor [1, 6] of the same compound?
Its Residual unpleasant odor is 6.8.

And the Power [1, 7]?
The Power was 6.8.

And the Residual unpleasant odor [1, 7]?
Its Residual unpleasant odor is 7.5.

And the Power [1, 8]?
Its Power is 6.6.

What about the Residual unpleasant odor [1, 8] of the same compound?
Its Residual unpleasant odor is 7.

And the “comparison of anti-odor activity, compound 1 versus ethyl N-acetyl-L-tryptophanate” value ([1]; incubated sweat)?
The value was “not as effective as Tryptophan ethyl ester hydrochloride”.

Which results are given for `CCOC(=O)[C@@H](N)Cc1c[nH]c2ccccc12.Cl` [Compound 1, L-tryptophan ethyl ester chlorhydride]?
anti-microbial activity on C. xerosis ([2]; in terms of the growth control): excellent anti-microbial activity; viable micro-organisms, CFU/g of preparation ([2]; 2 hours of contact): 4.6E3 CFU/g of preparation; viable micro-organisms, CFU/g of preparation ([2]; 6 hours of contact): 4.0E1 CFU/g of preparation; viable micro-organisms, CFU/g of preparation ([2]; 24 hours of contact): <20 CFU/g of preparation; reduction in terms of the growth control ([2]; after 2 h of contact): 3.3 Log Units; reduction in terms of the growth control ([2]; after 6 h of contact): 5.4 Log; reduction in terms of the growth control ([2]; after 24 h of contact): greater than or equal to 6.6 Log; Power [1, 9]: 3.2; Residual unpleasant odor [1, 9]: 3.4; Power [1, 10]: 2.8; Residual unpleasant odor [1, 10]: 3.2; Power [1, 11]: 1.4; Residual unpleasant odor [1, 11]: 0.6; Power [1, 6]: 3.2; Residual unpleasant odor [1, 6]: 3.4; Power [1, 7]: 2.8; Residual unpleasant odor [1, 7]: 3.2; Power [1, 8]: 1.4; Residual unpleasant odor [1, 8]: 0.6; Pleasantness of the odor [1, 12]: 5.3; Power [1, 12]: 3; Residual unpleasant odor [1, 12]: 1.7; Pleasantness of the odor [1, 3]: 5.7; Power [1, 3]: 3.3; Residual unpleasant odor [1, 3]: 1.3; effect on the unpleasant odor [1]: clear decrease in the unpleasant odor; comparison of anti-odor activity, compound 1 versus ethyl N-acetyl-L-tryptophanate ([1]; incubated sweat): superiority; comparison of anti-odor activity, compound 1 versus ethyl N-acetyl-L-tryptophanate ([1]; incubated sweat, listed as Tryptophan ester hydrochloride): better anti-odor activity than the Ethyl N-acetyl-L-tryptophanate

Which Power [1, 9] does the source give for “anhydrous aluminum hydroxychloride [ACH, reference compound]” here?
The Power was 1.6.

What about the Residual unpleasant odor [1, 9] of the same compound?
Its Residual unpleasant odor is 0.5.

What about the Power [1, 6] of the same compound?
The Power was 1.6.

What about the Residual unpleasant odor [1, 6] of the same compound?
Its Residual unpleasant odor is 0.5.

And the “Pleasantness of the odor” value [1, 13]?
Its value is 4.

And the Power [1, 13]?
Its Power is 0.8.

And the Residual unpleasant odor [1, 13]?
The Residual unpleasant odor was 0.3.

And the “Pleasantness of the odor” value [1, 14]?
Its value is 3.7.

And the Power [1, 14]?
Its Power is 2.7.

And the Residual unpleasant odor [1, 14]?
The Residual unpleasant odor was 2.7.

What about the “Pleasantness of the odor” value [1, 15] of the same compound?
The value was 5.

And the Power [1, 15]?
The Power was 2.

And the Residual unpleasant odor [1, 15]?
The Residual unpleasant odor was 1.7.

With `CCCCCCCCOC(=O)[C@@H](N)Cc1c[nH]c2ccccc12.Cl` [Compound 6, Tryptophan octyl ester hydrochloride] as the compound, how does the “Pleasantness of the odor” value [1, 12] read?
Its value is 7.

And the Power [1, 12]?
The Power was 7.

And the Residual unpleasant odor [1, 12]?
Its Residual unpleasant odor is 0.3.

What about the “Pleasantness of the odor” value [1, 3] of the same compound?
The value was 7.7.

And the Power [1, 3]?
Its Power is 6.3.

What about the Residual unpleasant odor [1, 3] of the same compound?
Its Residual unpleasant odor is 0.3.

And the “effect on the unpleasant odor” value [1]?
Its value is “effect of reducing the unpleasant odor”.

What about the “Pleasantness of the odor” value [1, 4] of the same compound?
Its value is “generates a pleasant odor”.

What does the source list for `N[C@@H](Cc1c[nH]c2ccccc12)C(=O)OCc1ccccc1` [Compound 7, Tryptophan benzyl ester]?
Pleasantness of the odor [1, 3]: 3.7; Power [1, 3]: 4.3; Residual unpleasant odor [1, 3]: 3; effect on the unpleasant odor [1]: effect on the reduction of the unpleasant odor; Pleasantness of the odor [1, 4]: generate a pleasant odor

Source: patent publication US11517516B2, “Use of ester derivative of tryptophan as deodorant and/or perfume agent” (L'oreal, priority 2014, dated 2022)
